Reference: the METLIN SMRT retention time set (Domingo-Almenara et al. 2019)

Test: gradient 5% acetonitrile 3 min, to 50% in 2 min, to 85% in 15 min, held 3 min, 100 µL/min
Details: column: Zorbax Extend-C18 2.1 x 50 mm; eluents: water / acetonitrile, 0.1% formic acid
How it was run: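 Retention time was recorded from adduct peaks, which were picked computationally and each inspected manually. Pure standards ran in mixtures of ~100 molecules on HPLC coupled to a quadrupole time-of-flight mass spectrometer, in positive and negative ionization mode, through a Zorbax Extend-C18 column (2.1 × 50 mm, 1.8 μm) at 100 μL/min. Eluents were water and acetonitrile, each with 0.1% formic acid.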

| RP-LC retention time [s] | SMILES |
| --- | --- |
| 1050 | COc1cc(OC)cc(-n2nnc(-c3nsc(Nc4ccccc4OC)n3)c2C)c1 |
| 602 | Cc1ccsc1C(=O)N1CCCn2nc(-c3ccncc3)cc2C1 |
| 864 | Cc1nc(-c2ccc(N3CCN(C(=O)c4n[nH]c5ccccc45)CC3)nc2)sc1C |
| 724 | O=C(NCC1CCCO1)c1n[nH]c2c1CCCCCC2 (configuration not stated) |
| 910 | Cc1cccc(NC(=O)C2CCN(S(=O)(=O)c3ccc4c(c3)sc(=O)n4C)CC2)c1 |
| 879 | COc1ccc(-c2cc3n(n2)CCCN(C(=O)CCC(=O)c2ccc(F)cc2)C3)cc1 |
| 731 | CCc1ccccc1NC(=O)N1CCC2(CC1)NC(=O)c1ccccc1N2C |
| 704 | CCC(=O)Nc1ccc2c(c1)Sc1ncccc1C(=O)N2C(C)C |
| 795 | Fc1ccc(CN2CCc3nc(N4CCN(c5ccccc5F)CC4)ncc3C2)c(F)c1 |
| 616 | CCC1CN(C(=O)N2CCC(C(=O)NCCN3CCN(CC)CC3)CC2)c2cc(C)ccc2O1 (configuration not stated) |
| 1080 | Cc1nn(C)c2nc(OC(C)C(=O)NCCc3ccc(Cl)cc3)cc(C(F)(F)F)c12 (configuration not stated) |
| 1110 | CCOc1ccc(-c2noc(CN3C(=O)COc4cc(C)ccc43)n2)cc1 |
| 661 | COc1ccc(S(=O)(=O)CCCC(=O)Nc2nccs2)cc1 |
| 1080 | Fc1ccccc1-c1noc(Cc2nnc(-c3cccc(Cl)c3)o2)n1 |
| 1080 | CC1CC(=O)c2cnc(N3CCN(c4ccccc4)CC3)nc2C1 (configuration not stated) |
| 568 | Cc1nn(CC(=O)N2CCN(c3ccccn3)CC2)c(=O)c2cccn12 |
| 1110 | CSc1sc(C)cc1-c1nsc(=O)o1 |
| 870 | CCOc1ccc(NC(=O)C2CC(=O)N(CCc3c[nH]c4ccc(Cl)cc34)C2)cc1 (configuration not stated) |
| 1230 | CCOc1ccc(S(=O)(=O)N2CCCC2c2nc(-c3ccc(Cl)cc3)no2)cc1 (configuration not stated) |

| RP-LC retention time [s] | SMILES |
| --- | --- |
| 979 | O=S(=O)(CCc1noc(-c2ccc3c(c2)OCO3)n1)c1ccc(Cl)cc1 |
| 723 | CC(C)NC(=O)C1CCCN(c2nc3ncn(CC(=O)N4CCc5ccccc5C4)c(=O)c3s2)C1 (configuration not stated) |
| 825 | CCn1cc(-c2ccc(OC)cc2)cc1C(=O)O |
| 1090 | O=C(c1ccc2c(c1)OCO2)N1CCc2cc(-c3csc(C4CC4)n3)ccc21 |
| 1020 | COc1ccccc1-n1ccn(Cc2nc(-c3ccc(C(C)(C)C)cc3)no2)c(=O)c1=O |
| 578 | O=C(c1cccc(N2CCCS2(=O)=O)c1)N1CCN(c2ccccn2)CC1 |
| 707 | Cc1ccc(S(=O)(=O)N2CCCC(Cn3c(C)nc4cccnc43)C2)cc1 (configuration not stated) |
| 1240 | CC(C)(C)c1cc(C(=O)NC2CCCCC2)nc2ccnn12 |
| 590 | CC(C)N1CCN(C(=O)c2csc(C(=O)NC3CCCC3)n2)CC1 |
| 631 | Cn1nnc2c(SCC(=O)NCc3ccco3)ncnc21 |
| 885 | O=C(Cn1c(C(F)(F)F)nc2cc3c(cc21)OCCO3)NCc1ccc(Cl)cc1 |
| 828 | CCOC(=O)c1ccc(NC(=O)Cn2nc3c(N4CCSCC4)nccn3c2=O)cc1 |
| 730 | Cc1cc(C)cc(NC(=O)N2CCC(c3nc(C(=O)N(C)C)c(C)o3)CC2)c1 |
| 858 | CCN1C(=O)CCc2cc(NS(=O)(=O)c3ccc(C(F)(F)F)cc3)ccc21 |
| 998 | O=C(Cc1cccc(F)c1)N1CCC2(CC1)Nc1ccccc1-n1cccc12 |
| 1280 | Cc1ccc(C)c(NC(=O)C2CCCN(c3nc4c(s3)c(C)nn4-c3cccc(F)c3)C2)c1 (configuration not stated) |
| 865 | COc1ccc(C)cc1NC(=O)N1CCC(c2nc(C(=O)N3CCCC3)c(C)o2)CC1 |
| 564 | COc1cccc2cc(C(=O)NCc3cccnc3)oc12 |
